The test system of one data set is MM1.S cells. Nature of the data set: CellTiter-Glo cell viability assay, MM1.S cells. Type of data set: cell-based, human. Particulars: Homo sapiens; MM1.S cells, 72 hours treatment; read-out: IC50 in MM1.S. Here is the method:
Cell viability in the presence of varying concentrations of the above listed compounds at different time points was used to assess cytotoxicity and the effect of the compounds on cell proliferation.
Cell Viability Assay—Cell viability was measured by the CellTiter-GlO® cell viability assay from Promega (Madison, Wis.). The CellTiter-GlO® Luminescent Cell Viability Assay is a homogeneous method to determine the number of viable cells in culture based on quantitation of the ATP present, which signals the presence of metabolically active cells. Following treatment, CellTiter-GlO® is added to treatment wells and incubated at 37° C. luminescence values were measured at using a Molecular Devices Spectramax microplate reader
(§1) Single Agent Studies—Cells were grown to 70% confluency, trypsinized, counted, and seeded in 96 well flat-bottom plates at a final concentration of 2.5×10^3-5×10^3 cells/well (Day 0). Cells were allowed to incubate in growth media for 24 hours. Treatment with the test agents or standard agents began on Day 1 and continued for 72 hours. At the 72 hour timepoint, treatment containing media was removed. Viable cell numbers are quantified by the CellTiter-GlO® cell viability assay as described above. Results from these studies were used to calculate an IC50 value (concentration of drug that inhibits cell growth by 50 percent of control) for each compound.
Data Collection—For single agent and combination studies, data from each experiment was collected and expressed as % Cell Growth using the following calculation: Cell Growth=(ftest/fvehicle)×100
Where ftest is the fluorescence of the tested sample, and fvehicle is the fluorescence of the vehicle in which the drug is dissolved. Dose response graphs and IC50 values were generated using Prism 6 software (GraphPad) using the following equation: […]
Where X is the logarithm of concentration and Y is the response. Y starts at the Bottom and goes to Top with a sigmoid shape.
Cell Viability Assay—Cell viability was measured by the CellTiter-Glo® cell viability assay Promega (Madison, Wis.). The CellTiter-Glo® Luminescent Cell Viability Assay is a homogeneous method to determine the number of viable cells in culture based on quantitation of the ATP present, which signals the presence of metabolically active cells. Following treatment, CellTiter-Glo® is added to treatment wells and incubated at 37° C. luminescence values were measured at using a Molecular Devices Spectramax microplate reader.
as §1, with “agents” for “agents or standard agents”, “72-hour time point, treatment-containing” for “72 hour timepoint, treatment containing”, “CellTiter-Glo®” for “CellTiter-GlO®”, “above. Experiments were run with triplicate concentrations to determine growth inhibitory activity.” for “above.”
Data Collection—For single agent and combination studies, data from each experiment was collected and expressed as % Cell Growth using the following calculation: % Cell Growth=(ftest/fvehicle)×100
Where ftest is the luminescence of the tested sample, and fvehicle is the luminescence of the vehicle in which the drug is dissolved. Dose response graphs and IC50 values were generated using Prism 6 software (GraphPad).

The next data set is described as follows: Permeability (PAMPA). The format is in vitro ADME. Particulars: read-out: Permeabiltiy (PAMPA).
The next data set concerns the target HDAC6 (Homo sapiens (Human), UniProt Q9UBN7). Description: In vitro HDAC enzyme inhibition, mobility shift. The conditions noted are these: purified enzyme. Type of data set: biochemical. The method, then:
(§2) Purified histone deacetylase enzymes 1, 3, 6, 10 were incubated with fluorescently labeled substrate and test compounds in a standardized reaction mixture in 384 well plates. Upon termination of the reaction, samples were introduced onto microfluidic chips. Samples migrate through channels in the chips and product and substrate are separated based on the difference in their charge and mass (electrophoretic mobility shift). Enzyme activity is measured by direct comparison of the fluorescence in the product and substrate peaks and the results presented in Table 4.

For another data set, the target named is HDAC10 (Homo sapiens (Human), UniProt Q969S8). Description: In vitro HDAC enzyme inhibition, mobility shift. The format is biochemical. Particulars: purified enzyme. The method, then:
as §2

For another data set, the target named is HDAC3 (Homo sapiens (Human), UniProt O15379). Description: In vitro HDAC enzyme inhibition, mobility shift. Type of data set: biochemical. The conditions noted are these: purified enzyme. Here is the method:
as §2

The target in another data set is HDAC1 (Homo sapiens (Human), UniProt Q13547). Nature of the data set: In vitro HDAC enzyme inhibition, mobility shift. Type of data set: biochemical. Particulars: purified enzyme. Here is the method: as §2
The nature of data set [1]: Pharmacokinetic studies in the mouse. Type of data set: in vivo. The method, then: Plasma samples were collected from healthy mice and analyzed for levels of compound ID #1, ID #2, and ID #3 and reported in Table 5. In brief, compounds were individually and accurately weighed out to produce a stock solution in Dimethyl-sulfoxide (DMSO) at a concentration of 2 mg/mL and stored at −20° C. From the stock solution, a working stock was prepared by diluting it in Methanol-Water 50:50 (v/v) at 20 μg/mL for calibration curve preparation and stored at 4° C. Standards used for quantitation and quality control samples (QC's) were prepared on the same day of sample processing using blank plasma obtained from non-treated mice. For each analyte, standards were prepared through serial dilution of the working stock at concentrations of 0.1, 0.5, 1.0, 10, 50, 100, 500 and 1000 ng/mL; QC's were prepared at intermediate concentrations of 0.75, 7.5, 75 and 750 ng/mL. Plasma samples were stored at −80° C. until ready for analysis and then placed on ice for thawing. An aliquot of 20 μL for samples, standards and QC's, were transferred into a 96-well extraction plate according to a pre-defined layout. Appropriate volume of Methanol-Formic Acid 99.9-0.1 containing internal standard (Verapamil at 25 ng/mL) was added to each well and samples were extracted under vacuum. Eluent was then transferred into a LCMS plate for analysis using a suitable column for separation and MRM detection. Concentration of analytes was calculated based on the calibration curve and analyzed for pharmacokinetic parameters by using Non-compartmental analysis (NCA) using WinNonlin Phoenix software. Parameters such as Cmax, Tmax, half-life, AUC(0-last), AUC(0-∞), volume of distribution (Vss) and clearance (Cl/F) were reported.
The analogs were tested for pharmacokinetic analysis in the mouse with doses of 1 mg/kg for intravenous (IV) route and 5 mg/kg for oral (P0) route. […] Overall exposure following IV dose also favored compound ID #1 with AUCO-∞ 1488.1 hr*ng/mL whereas compound ID #2 and ID #3 were 329.1 and 1193.7 hr*ng/mL, respectively.

The next data set is described as follows: S9 in vitro half-life. Type of data set: in vitro ADME. Particulars: S9 fraction.

Where two headings read alike, the source gives them in different places.

HDAC10, sequence (Q969S8 whole entry): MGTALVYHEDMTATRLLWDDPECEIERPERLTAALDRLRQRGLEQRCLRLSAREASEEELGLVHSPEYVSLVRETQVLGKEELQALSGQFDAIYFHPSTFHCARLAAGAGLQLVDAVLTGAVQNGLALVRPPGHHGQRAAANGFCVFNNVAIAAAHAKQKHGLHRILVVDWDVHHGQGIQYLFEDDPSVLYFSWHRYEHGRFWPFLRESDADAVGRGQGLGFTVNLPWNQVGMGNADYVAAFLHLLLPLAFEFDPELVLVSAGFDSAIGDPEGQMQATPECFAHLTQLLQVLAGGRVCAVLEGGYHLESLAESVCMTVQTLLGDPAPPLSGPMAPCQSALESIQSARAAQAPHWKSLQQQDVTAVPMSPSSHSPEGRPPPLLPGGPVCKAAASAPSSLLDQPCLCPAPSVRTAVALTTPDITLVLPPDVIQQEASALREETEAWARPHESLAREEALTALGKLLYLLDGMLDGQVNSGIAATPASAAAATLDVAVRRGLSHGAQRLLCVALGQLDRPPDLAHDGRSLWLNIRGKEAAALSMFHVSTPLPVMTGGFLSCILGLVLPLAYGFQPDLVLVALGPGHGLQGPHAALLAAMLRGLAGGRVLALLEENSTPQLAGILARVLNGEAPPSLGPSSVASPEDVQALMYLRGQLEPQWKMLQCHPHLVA
HDAC6, sequence (Q9UBN7 whole entry): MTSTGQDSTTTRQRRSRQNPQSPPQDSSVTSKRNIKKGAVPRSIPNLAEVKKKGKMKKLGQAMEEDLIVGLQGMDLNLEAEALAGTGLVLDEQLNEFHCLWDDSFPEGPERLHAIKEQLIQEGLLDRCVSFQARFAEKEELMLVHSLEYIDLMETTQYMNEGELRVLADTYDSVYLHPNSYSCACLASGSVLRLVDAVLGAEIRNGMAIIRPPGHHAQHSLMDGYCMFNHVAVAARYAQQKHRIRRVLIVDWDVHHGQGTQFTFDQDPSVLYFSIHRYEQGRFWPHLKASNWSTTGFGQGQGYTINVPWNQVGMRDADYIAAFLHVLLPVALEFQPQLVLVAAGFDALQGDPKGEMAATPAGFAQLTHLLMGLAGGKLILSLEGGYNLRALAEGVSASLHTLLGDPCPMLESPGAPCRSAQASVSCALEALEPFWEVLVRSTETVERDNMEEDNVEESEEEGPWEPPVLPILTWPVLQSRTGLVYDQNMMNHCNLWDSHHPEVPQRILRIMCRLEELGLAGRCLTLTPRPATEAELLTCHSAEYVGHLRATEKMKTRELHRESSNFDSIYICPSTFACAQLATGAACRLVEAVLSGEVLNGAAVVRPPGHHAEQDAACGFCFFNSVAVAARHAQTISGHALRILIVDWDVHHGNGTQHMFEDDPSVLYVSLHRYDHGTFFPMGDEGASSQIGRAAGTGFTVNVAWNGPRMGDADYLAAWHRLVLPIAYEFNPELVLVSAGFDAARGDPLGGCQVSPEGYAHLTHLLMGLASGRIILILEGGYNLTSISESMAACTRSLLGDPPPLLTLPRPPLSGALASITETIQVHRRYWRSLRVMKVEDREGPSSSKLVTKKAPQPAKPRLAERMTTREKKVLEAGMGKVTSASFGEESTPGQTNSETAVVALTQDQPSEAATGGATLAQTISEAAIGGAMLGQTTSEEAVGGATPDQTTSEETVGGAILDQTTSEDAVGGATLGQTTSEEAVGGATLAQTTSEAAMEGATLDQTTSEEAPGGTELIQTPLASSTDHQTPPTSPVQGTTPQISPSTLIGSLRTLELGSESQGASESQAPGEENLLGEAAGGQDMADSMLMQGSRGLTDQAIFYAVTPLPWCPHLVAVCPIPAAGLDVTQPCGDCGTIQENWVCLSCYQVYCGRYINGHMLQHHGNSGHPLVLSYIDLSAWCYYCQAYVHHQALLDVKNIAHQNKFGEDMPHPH
HDAC3, sequence (O15379 whole entry): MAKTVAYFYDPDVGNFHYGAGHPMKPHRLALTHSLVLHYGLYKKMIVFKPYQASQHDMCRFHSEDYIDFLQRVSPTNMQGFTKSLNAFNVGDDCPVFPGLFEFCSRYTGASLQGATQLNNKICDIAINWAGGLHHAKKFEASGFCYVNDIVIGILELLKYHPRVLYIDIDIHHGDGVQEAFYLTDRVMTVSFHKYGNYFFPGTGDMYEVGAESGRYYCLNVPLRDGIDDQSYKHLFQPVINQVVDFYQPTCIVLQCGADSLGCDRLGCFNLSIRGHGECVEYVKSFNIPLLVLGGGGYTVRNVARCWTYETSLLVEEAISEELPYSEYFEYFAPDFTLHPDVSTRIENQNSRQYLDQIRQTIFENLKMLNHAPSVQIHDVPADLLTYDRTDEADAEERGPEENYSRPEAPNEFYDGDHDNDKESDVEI
HDAC3, sequence (Q9Y618 395-489 partner): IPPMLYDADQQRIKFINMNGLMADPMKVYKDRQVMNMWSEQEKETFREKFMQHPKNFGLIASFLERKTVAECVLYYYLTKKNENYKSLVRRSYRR
HDAC1, sequence (Q13547 whole entry): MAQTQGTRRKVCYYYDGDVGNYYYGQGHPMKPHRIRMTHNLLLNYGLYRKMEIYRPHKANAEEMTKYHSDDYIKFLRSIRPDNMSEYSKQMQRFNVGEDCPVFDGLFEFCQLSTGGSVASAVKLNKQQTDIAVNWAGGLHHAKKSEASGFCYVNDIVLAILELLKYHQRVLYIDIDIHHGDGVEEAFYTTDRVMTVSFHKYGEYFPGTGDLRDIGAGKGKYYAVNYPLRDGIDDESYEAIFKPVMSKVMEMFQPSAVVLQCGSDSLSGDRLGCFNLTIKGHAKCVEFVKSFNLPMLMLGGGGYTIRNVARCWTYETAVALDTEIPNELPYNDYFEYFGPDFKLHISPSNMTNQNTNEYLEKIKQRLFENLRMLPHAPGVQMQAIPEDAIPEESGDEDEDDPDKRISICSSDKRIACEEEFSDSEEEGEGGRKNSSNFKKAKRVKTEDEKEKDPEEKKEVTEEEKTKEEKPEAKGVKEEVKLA

For `O=C(NO)c1ccc(Nc2nc3cc(F)ccc3n2CC2CCOCC2)cc1` [ID #10, 4-((5-fluoro-1-((tetrahydro-2H-pyran-4-yl)methyl)-1H-benzo[d]imidazol-2-yl)amino)-N-hydroxybenzamide], the IC50 in the data set on MM1.S cells is 2900 nM.

Turning to `O=C(NO)c1ccc(Nc2nc3cc(F)ccc3n2CC2CCC(F)(F)CC2)cc1` [ID #8], the IC50 in the data set on MM1.S cells was 1200 nM.

As to `O=C(NO)c1ccc(Nc2nc3ccccc3n2C2CCCCC2)cc1` [ID #2, 4-((1-cyclohexyl-1H-benzo[d]imidazol-2-yl)amino)-N-hydroxybenzamide], the Papp in “Permeability (PAMPA)” worked out at 1.65 ×10⁻⁶ cm/s. The IC50 is 0.015 µM on HDAC6; 3.56 µM at HDAC10; 0.068 µM on HDAC3; 0.385 µM on HDAC1; 2000 nM in the data set with MM1.S cells. Moreover, in data set [1] (1.0 mg/kg IV), the “AUC0-∞” value was found to be 329.14 ng·h/mL. The “AUC % Extrap” value in data set [1] (1.0 mg/kg IV) turned out to be 1.44%; in data set [1] (5.0 mg/kg PO), 0.14%. In data set [1] (1.0 mg/kg IV), the Cl/F obs was 50.7 mL/min/kg. Further, the “Rsq (>0.85)” value came to 0.85 in data set [1] (1.0 mg/kg IV) and 1.00 in data set [1] (5.0 mg/kg PO). In addition, the half-life was 1.20 h in data set [1] (1.0 mg/kg IV); 1.2 h in data set [1] (plasma, 1.0 mg/kg IV, read-out: Half-life (converted)); 2.56 h in data set [1] (plasma, 5.0 mg/kg PO, read-out: Half-life (converted)); more than 1.5 h in the data set “S9 in vitro half-life”. Also, the Cmax in data set [1] (5.0 mg/kg PO) worked out at 407.10 ng/mL; in data set [1] (plasma, iv, 1 mg/kg, 1.0 mg/kg IV, read-out: Cmax), 508 ng/mL; in data set [1] (plasma, po, 5 mg/kg, 5.0 mg/kg PO, read-out: Cmax) it was 407 ng/mL. The AUC(0-t) in data set [1] (plasma, 1.0 mg/kg IV) is 324 ng·h/mL; in data set [1] (plasma, 5.0 mg/kg PO), 1280 ng·h/mL. The Tmax in data set [1] (plasma, 1.0 mg/kg IV) amounted to 0.08 h; in data set [1] (plasma, 5.0 mg/kg PO) it was 0.5 h. For the same molecule, the Vd in data set [1] (plasma, 1.0 mg/kg IV, read-out: Vss) turned out to be 3.5 L/kg. The molecule also gave a CL/F in data set [1] (plasma, 5.0 mg/kg PO) of 65.2 mL/min/kg. In data set [1] (plasma, 5.0 mg/kg PO), this molecule yielded a bioavailability of 77.6%. The Vd/F in data set [1] (plasma, 5.0 mg/kg PO, read-out: Vz/F obs) worked out at 14.5 L/kg. The AUC(0-inf) in data set [1] (plasma, iv, 1 mg/kg, 1.0 mg/kg IV, read-out: AUC0-∞) was found to be 329 ng·h/mL; in data set [1] (plasma, po, 5 mg/kg, 5.0 mg/kg PO, read-out: AUC0-∞), 1280 ng·h/mL; in data set [1] (plasma, po, 5 mg/kg, 5 mg/kg oral, read-out: AUC0-∞ (overall exposure following oral doses)), 1280 ng·h/mL.

Consider `O=C(NO)c1ccc(Nc2nc3ccccc3n2CC2CCC(F)(F)CC2)cc1` [ID #7], for which the concentration for half-maximal inhibition (IC50) in the data set with MM1.S cells was 700 nM.

For `O=C(NO)c1ccc(Nc2nc3ccccc3n2CCC2CCCC2)cc1` [ID #6, 4-((1-(2-cyclopentylethyl)-1H-benzo[d]imidazol-2-yl)amino)-N-hydroxybenzamide], the IC50 in the data set on MM1.S cells is 1100 nM.

On to `O=C(NO)c1ccc(Nc2nc3ccccc3n2CC2CCOCC2)cc1` [ID #9, N-hydroxy-4-((1-((tetrahydro-2H-pyran-4-yl)methyl)-1H-benzo[d]imidazol-2-yl)amino)benzamide], for which the 50% inhibitory concentration (IC50) with MM1.S cells worked out at 2900 nM.

`O=C(NO)c1ccc(Nc2nc3ccccc3n2CC2CCCC2)cc1` [ID #5, 4-((1-(cyclopentylmethyl)-1H-benzo[d]imidazol-2-yl)amino)-N-hydroxybenzamide]: the IC50 in the data set on MM1.S cells was 2200 nM.

As to `O=C(NO)c1ccc(Nc2nc3ccccc3n2CC2(F)CCCCC2)cc1` [ID #4], the IC50 in the data set on MM1.S cells came out at 2600 nM.
